Values of other authors as cited in US20160199396A1 (TEVA Pharmaceutical Industries Ltd., priority 2013, published 2016).

Conditions: background statement

CC(C)c1nc(CN(C)C(=O)N[C@H](C(=O)N[C@@H](Cc2ccccc2)C[C@H](O)[C@H](Cc2ccccc2)NC(=O)OCc2cncs2)C(C)C)cs1 [Ritonavir, 1,3-thiazol-5-ylmethyl N-[(2S,3S,5S)-3-hydroxy-5-[(2S)-3-methyl-2-{[methyl({[2-(propan-2-yl)-1,3-thiazol-4-yl]methyl})carbamoyl]amino}butanamido]-1,6-diphenylhexan-2-yl]carbamate]
BCS (biopharmaceutical classification system) class: class IV
